From patent US20230087766A1, “METHODS OF REACTIVATING LATENT HUMAN IMMUNODEFICIENCY VIRUS AND RELATED COMPOSITIONS” (priority 2017, published 2023)
Entries after “also recorded” stand apart in the source; their conditions may differ.

Legend:
latent HIV in U1 cells = experiment: p24 ELISA in U1 cells; assay type: cell-based; conditions: day 6
Method: Cell culture: J-Lat Al cells (derived from Jurkat cells harboring HIV LTR-Tat-GFP gene) and U1 cells (promonocytic cell line harboring one copy of HIV genome with defective tat gene) were obtained from NIH AIDS Reagent Program and cultured at 37° C. with 5% CO2 in RPM11640 medium containing 10% FBS and 1% penicillin-streptomycin as previously described (see G. Jiang, et al. PLoS Pathogens 11, e1005066 (2015)).
For inhibiting ACSS2 and crotonylation, cells were pretreated with ACSS2 inhibitor, AR12 (SELLECK CHEMICALS™, Houston, Tex.), for 30 minutes, followed by Na-Cro treatment for 4 or 18 hours.

[1] = tested on: T cells in PBMCs from healthy HIV-negative donors; experiment: Immune activation and checkpoint markers in PBMCs by flow cytometry; assay type: cell-based, human
Method: PBMCs from healthy HIV-negative donors (n=5) were treated with 100 ng/ml PMA 2 plus 2 μg/ml ionomycin, 30 mM Na-Cro overnight, and analyzed by flow cytometry for the expression of CD4, CD8, HLA-DR, CD69, or PD-1 in CD3+ T cells. Percentage of cells expressing immune activation markers was presented for CD3+ cells (see panel A), CD3+CD4+ T cells (see panel B), and CD3+ CD8+ T cells (see panel C). ***, p<0.001, compared with control after 24 or 72 hour treatment.
It was examined whether induction of histone crotonylation in T cells impacted the level of immune activation in these cells. Peripheral blood mononuclear cells from HIV-negative healthy donors (n=5) were treated with PMA/Ionomycin or Na-Cro for 24 hours or 72 hours. Changes in the immune cell status were examined by measuring the levels of HLA-DR, CD69, and PD-1 in the T cell subsets by flow cytometric analysis (see FIG. 9). […] Instead, it is associated with the suppression of immune activation, which may have a beneficial effect on patient immune function.

[2] = tested on: histone tails and transcription factors in J-Lat A1 cells; experiment: Western blot of global histone modifications and transcription factors; assay type: cell-based
Source text: FIG. 2 is a series of images and graphs showing that histone crotonylation by sodium crotonate addition re-programs histone tails at the HIV LTR. Panel A illustrates that Na-Cro addition increased global expression of H3K4Cro, H3K4Ac, and H3K18Ac while decreasing H3K27Me3. Panel B illustrates expression of transcription factors after Na-Cro addition in J-Lat Al cells. Panels C-E illustrate that Na-Cro addition re-programmed histone tails at the HIV LTR. Chromatin immunoprecipitation (ChIP) assay was performed by using anti-H3K4Cr, anti-H3K4Ac, and anti-H3K27Me3 antibodies after J-Lat Al cells were treated with 30 mM Na-Cro for 4 hours. PCR primers were specific for the HIV LTR region.
Western Blot Analysis: Western blot analysis was performed by using one million cells treated with LRAs for 6 or 18 hours. Whole cell lysates were prepared using RIPA buffer. Nuclear Extracts were prepared using EPIQUIK™ Total Histone Extraction Kit ([…]™, Farmingdale N.Y.). Antibodies (CELL SIGNALING TECHNOLOGY®, Boston, Mass.) for Cyclin T1, CDK9, CDK9-P, NF-kB, GAPDH, and total H3 were used to detect protein expression under different drug conditions. Antibodies for H3K4Cro (PTM BIOLABS™, Chicago, Ill.), H3K27Me3 (CELL SIGNALING TECHNOLOGY®), H3K4Ac (CELL SIGNALING TECHNOLOGY®), and H3K18Ac (CELL SIGNALING TECHNOLOGY®) were used to measure histone modifications.

J-Lat A1 cells = experiment: Cellular viability by flow cytometry of live/dead staining; assay type: cell-based; conditions: Na-Cro 10 mM to 40 mM
Method: An increased concentration of Na-Cro was added in the J-Lat A1 cells, and cellular viability was evaluated by flow cytometry of live/dead staining.

[3] = healthy donors n=5, 30 mM Na-Cro

## C/C=C/C(=O)[O-].[Na+] [Na-Cro, sodium crotonate]
Latent HIV in U1 cells; 20 mM Na-Cro
  p24 antigen: over 500 pg/mL
Latent HIV in U1 cells; 40 mM Na-Cro
  p24 antigen: > 2000 pg/mL
[1]; [3]
  HLA-DR expression in CD4+ or CD8+ T cells: inhibited HLA-DR expression at 24 and 72 hours
  PD-1 expression in CD3+ T cells: did not change
  PD-1 expression in CD4+ or CD8+ T cells: did not modulate PD-1 expression
[1]; healthy donors n=5, 30 mM Na-Cro or PMA plus ionomycin, 24 or 72 hours
  HLA-DR expression in CD3+ T cells: suppressed HLA-DR expression at 72 hours post-treatment
[2]; J-Lat A1 cells
  expression of transcription factors involved in HIV transcription: did not alter transcription factors that are involved in HIV transcription except a minor induction of CDK9 protein
[2]; Na-Cro-treated T cells
  global H3K4 acetylation: increased
  global H3K4 crotonylation: increased
  global H3K18 acetylation: increased
  global H3K27 trimethylation: markedly decreased
J-Lat A1 cells
  cell toxicity: not toxic to immune cells; also recorded: Minimal cell toxicity
